Structures are written as SMILES.

In general, IC50 refers to the midpoint of a concentration-inhibition curve. The low end stands for greater potency in that assay, the high end for weaker potency in that assay.

The target of this assay is human Cereblon WT GST-tagged protein (Homo sapiens (Human), UniProt Q96SW2). Nature of the assay: CRBN-binding affinity, CEREBLON BINDING kit (HTRF). The following applies: HTRF inhibitory activity, binding to CRBN. An excerpt: Determination of CRBN-Binding Affinity of Compounds
Chain of human Cereblon WT GST-tagged protein (Q96SW2 whole entry): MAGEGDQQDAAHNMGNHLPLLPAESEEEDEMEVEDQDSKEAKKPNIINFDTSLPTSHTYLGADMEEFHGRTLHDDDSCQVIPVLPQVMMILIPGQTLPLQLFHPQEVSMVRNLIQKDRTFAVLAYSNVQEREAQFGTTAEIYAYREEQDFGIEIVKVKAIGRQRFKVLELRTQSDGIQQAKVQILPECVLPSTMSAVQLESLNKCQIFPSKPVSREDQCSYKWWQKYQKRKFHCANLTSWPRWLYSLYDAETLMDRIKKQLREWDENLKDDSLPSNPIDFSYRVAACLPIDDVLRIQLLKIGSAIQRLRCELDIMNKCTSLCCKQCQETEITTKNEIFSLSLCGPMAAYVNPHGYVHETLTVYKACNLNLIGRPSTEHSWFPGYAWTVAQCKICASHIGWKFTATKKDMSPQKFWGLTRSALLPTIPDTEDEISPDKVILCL
The CEREBLON BINDING kits (specification: 10,000 tests; product number: Catalog #64BDCRBNPEH; CISBIO company) was used to determine the CRBN binding ability of the compounds to be tested through a HTRF method (homogeneous time-resolved fluorescence). The specific methods are as follows: • 1. According to the instructions of the CEREBLON BINDING kits, the compounds to be tested of the present invention and lenalidomide were serially diluted using diluent #9 (1×) solution to obtain a final concentration of 2 μM for both the tested compounds and lenalidomide solution. • 2.2.5 μL of the above 2 μM of the tested compounds and lenalidomide solution, as well as the same volume of diluent #9 (1×) solution (solvent control group, Std0) were taken and added to each well of a 96-well plate, respectively. Then, 2.5 μL of (human Cereblon WT GST-tagged protein) solution was added to each well. Finally, 5 μL of the uniformly mixed thalidomide-Red reagent and GST Eu antibody working solution were added to each of the above wells. The final concentration of the tested compounds and lenalidomide in each well is 0.5 μM. • 3. The blank control wells were sequentially added with 2.5 μL of diluent #9 (1×) solution, 2.5 μL of PROTAC binding buffer, and 5 μL of uniformly mixed thalidomide-Red reagent and GST Eu antibody working solution. • 4. After sealing and incubating the solutions in the above wells at room temperature for 3 hours, the absorbance values at emission wavelengths of 620 nm and 665 nm were detected by the HTRF method using a Spark microplate reader (V3.1 SP1).
The corresponding CRBN binding inhibition rate was calculated using the following method: […]
Note: OD 665 nmcompound is the absorbance value of each well of the compounds to be tested of the present disclosure at an emission wavelength of 665 nm.
OD 620 nmcompound is the absorbance value of each well of the compounds to be tested of the present disclosure at an emission wavelength of 620 nm.
OD 665 nmcontrol is the absorbance value of the blank control well at an emission wavelength of 665 nm.
OD 620 nmcontrol is the absorbance value of the blank control well at an emission wavelength of 620 nm.
OD 665 nmstd0 is the absorbance value of the solvent control well at an emission wavelength of 665 nm.
OD 620 nmstd0 is the absorbance value of the solvent control well at an emission wavelength of 620 nm.
(In general: TR-FRET usually uses a lanthanide donor and a delayed reading to cut background.)

Turning to `Cc1nc2cccc(CCCCCNC34CC5CC(CC(C5)C3)C4)c2c(=O)n1C1CCC(=O)NC1=O` (stereo not drawn) [GT-02759, 3-(5-(5-(((3s,5s,7s)-adamantan-1-yl)amino)pentyl)-2-methyl-4-oxoquinazolin-3(4H)-yl)piperidine-2,6-dione], the IC50 is 50 nM. The same measure for `Cc1nc2cccc(C#CCN3CCN(CCC45CC6CC(CC(C6)C4)C5)CC3)c2c(=O)n1C1CCC(=O)NC1=O` (stereo not drawn) [GT-03262, 3-(5-(3-(4-(2-((1s,3s)-adamantan-1-yl)ethyl)piperazin-1-yl)prop-1-yn-1-yl)-2-methyl-4-oxoquinazolin-3(4H)-yl)piperidine-2,6-dione]: 1000 nM; for `Cc1nc2cccc(NCCCCNC3C4CC5CC(C4)CC3C5)c2c(=O)n1C1CCC(=O)NC1=O` (stereo not drawn) [GT-02392, 3-(5-((4-(((1r,3r,5r,7r)-adamantan-2-yl)amino)butyl)amino)-2-methyl-4-oxoquinazolin-3(4H)-yl)piperidine-2,6-dione]: 990 nM. The same measure for `Cc1nc2cccc(SCCN3CCN(Cc4ccc(C56CC7CC(CC(C7)C5)C6)cc4)CC3)c2c(=O)n1C1CCC(=O)NC1=O` (stereo not drawn) [GT-03315, 3-(5-((2-(4-(4-((1s,3s)-adamantan-1-yl)benzyl)piperazin-1-yl)ethyl)thio)-2-methyl-4-oxoquinazolin-3(4H)-yl)piperidine-2,6-dione]: 1980 nM; for `Cc1nc2cccc(NCCOCCOCCNC34CC5CC(CC3C5)C4)c2c(=O)n1C1CCC(=O)NC1=O` (stereo not drawn) [GT-02497, 3-(5-((2-(2-(2-(((3as,6as)-hexahydro-2,5-methanopentalen-3a(1H)-yl)amino)ethoxy)ethoxy)ethyl)amino)-2-methyl-4-oxoquinazolin-3(4H)-yl)piperidine-2,6-dione]: 660 nM; for `Cc1nc2cccc(NCCOCCNC34CC5CC(CC3C5)C4)c2c(=O)n1C1CCC(=O)NC1=O` (stereo not drawn) [GT-02389, 3-(5-((2-(2-(((3as,6as)-hexahydro-2,5-methanopentalen-3a(1H)-yl)amino)ethoxy)ethyl)amino)-2-methyl-4-oxoquinazolin-3(4H)-yl)piperidine-2,6-dione]: 780 nM. `Cc1nc2cccc(NCCCNC3C4CC5CC(C4)CC3C5)c2c(=O)n1C1CCC(=O)NC1=O` (stereo not drawn) [GT-02326, 3-(5-((3-(((1r,3r,5r,7r)-adamantan-2-yl)amino)propyl)amino)-2-methyl-4-oxoquinazolin-3(4H)-yl)piperidine-2,6-dione] showed an IC50 of 700 nM. Consider `Cc1nc2cccc(C#CCCCCCCN3CCN(C)CC3)c2c(=O)n1C1CCC(=O)NC1=O` (stereo not drawn) [GT-02645, 3-(2-methyl-5-(8-(4-methylpiperazin-1-yl)oct-1-yn-1-yl)-4-oxoquinazolin-3(4H)-yl)piperidine-2,6-dione], for which the IC50 came to 2800 nM. `Cc1nc2cccc(NCCOCCNC34CC5CC(CC(C5)C3)C4)c2c(=O)n1C1CCC(=O)NC1=O` (stereo not drawn) [GT-02234, 3-(5-((2-(2-(((1s,3s)-adamantan-1-yl)amino)ethoxy)ethyl)amino)-2-methyl-4-oxoquinazolin-3(4H)-yl)piperidine-2,6-dione]: the IC50 stood at 3340 nM.

The compound `Cc1nc2cccc(NCCCCCCCN3CC4CC(C3)O4)c2c(=O)n1C1CCC(=O)NC1=O` (stereo not drawn) [GT-02621, 3-(5-((7-(6-oxa-3-azabicyclo[3.1.1]heptan-3-yl)heptyl)amino)-2-methyl-4-oxoquinazolin-3(4H)-yl)piperidine-2,6-dione] yielded an IC50 of 1040 nM. Turning to `Cc1nc2cccc(C#CCN3CCN(Cc4ccc(C56CC7CC(CC(C7)C5)C6)cc4)CC3)c2c(=O)n1C1CCC(=O)NC1=O` (stereo not drawn) [GT-03233, 3-(5-(3-(4-(4-((3r,5r,7r)-adamantan-1-yl)benzyl)piperazin-1-yl)prop-1-yn-1-yl)-2-methyl-4-oxoquinazolin-3(4H)-yl)piperidine-2,6-dione], the IC50 was found to be 2240 nM. As to `Cc1nc2cccc(CCCCCCCCN3CC4CC(C3)O4)c2c(=O)n1C1CCC(=O)NC1=O` (stereo not drawn) [GT-02800, 3-(5-(8-(6-oxa-3-azabicyclo[3.1.1]heptan-3-yl)octyl)-2-methyl-4-oxoquinazolin-3(4H)-yl)piperidine-2,6-dione], the IC50 is 3400 nM. On to `Cc1nc2cccc(N3C4CC3CN(CCC35CC6CC(CC(C6)C3)C5)C4)c2c(=O)n1C1CCC(=O)NC1=O` (stereo not drawn) [GT-04231, 3-(5-(3-(2-((3r,5r,7r)-adamantan-1-yl)ethyl)-3,6-diazabicyclo[3.1.1]heptan-6-yl)-2-methyl-4-oxoquinazolin-3(4H)-yl)piperidine-2,6-dione], for which the IC50 came to 3240 nM.

`Cc1nc2cccc(CN3CCN(CC45CC6CC(CC(C6)C4)C5)CC3)c2c(=O)n1C1CCC(=O)NC1=O` (stereo not drawn) [GT-03227, 3-(5-((4-(((3r,5r,7r)-adamantan-1-yl)methyl)piperazin-1-yl)methyl)-2-methyl-4-oxoquinazolin-3(4H)-yl)piperidine-2,6-dione]: the IC50 was determined as 2240 nM. On to `Cc1nc2cccc(CN3CCN(C(=O)C45CC6CC(CC(C6)C4)C5)CC3)c2c(=O)n1C1CCC(=O)NC1=O` (stereo not drawn) [GT-03317, 3-(5-((4-((1s,3s)-adamantane-1-carbonyl)piperazin-1-yl)methyl)-2-methyl-4-oxoquinazolin-3(4H)-yl)piperidine-2,6-dione], for which the IC50 came to 3580 nM. Consider `Cc1nc2cccc(CCCCCCCCN3CCC(N4CCN(C)CC4)CC3)c2c(=O)n1C1CCC(=O)NC1=O` (stereo not drawn) [GT-02799, 3-(2-methyl-5-(8-(4-(4-methylpiperazin-1-yl)piperidin-1-yl)octyl)-4-oxoquinazolin-3(4H)-yl)piperidine-2,6-dione], for which the IC50 was 2470 nM.

Consider `Cc1nc2cccc(CN3CCN(CCC45CC6CC(CC(C6)C4)C5)CC3)c2c(=O)n1C1CCC(=O)NC1=O` (stereo not drawn) [GT-03261, 3-(5-((4-(2-((3r,5r,7r)-adamantan-1-yl)ethyl)piperazin-1-yl)methyl)-2-methyl-4-oxoquinazolin-3(4H)-yl)piperidine-2,6-dione], for which the IC50 came to 1000 nM.

Compound `Cc1nc2cccc(NCCCCCCCN3CCC(N4CCOCC4)CC3)c2c(=O)n1C1CCC(=O)NC1=O` (stereo not drawn) [GT-02622, 3-(2-methyl-5-((7-(4-morpholinopiperidin-1-yl)heptyl)amino)-4-oxoquinazolin-3(4H)-yl)piperidine-2,6-dione] returned an IC50 of 2480 nM. Turning to `Cc1nc2cccc(SCCN3CCN(CC45CC6CC(CC(C6)C4)C5)CC3)c2c(=O)n1C1CCC(=O)NC1=O` (stereo not drawn) [GT-03259, 3-(5-((2-(4-(((3r,5r,7r)-adamantan-1-yl)methyl)piperazin-1-yl)ethyl)thio)-2-methyl-4-oxoquinazolin-3(4H)-yl)piperidine-2,6-dione], the IC50 stood at 2150 nM.

As to `Cc1nc2cccc(NC34CC5CC(CC(C5)C3)C4)c2c(=O)n1C1CCC(=O)NC1=O` (stereo not drawn) [GT-02601, 3-(5-(((1s,3s)-adamantan-1-yl)amino)-2-methyl-4-oxoquinazolin-3(4H)-yl)piperidine-2,6-dione], the IC50 was 2820 nM. As to `Cc1nc2cccc(CN3CCN(Cc4ccc(C56CC7CC(CC(C7)C5)C6)cc4)CC3)c2c(=O)n1C1CCC(=O)NC1=O` (stereo not drawn) [GT-03230, 3-(5-((4-(4-((3r,5r,7r)-adamantan-1-yl)benzyl)piperazin-1-yl)methyl)-2-methyl-4-oxoquinazolin-3(4H)-yl)piperidine-2,6-dione], the IC50 came to 2750 nM. Compound `Cc1nc2cccc(NCCCCCCCN3CCCN(C)CC3)c2c(=O)n1C1CCC(=O)NC1=O` (stereo not drawn) [GT-02502, 3-(2-methyl-5-((7-(4-methyl-1,4-diazepan-1-yl)heptyl)amino)-4-oxoquinazolin-3(4H)-yl)piperidine-2,6-dione] yielded an IC50 of 1800 nM.

Compound `Cc1nc2cccc(CN3CCNCC3)c2c(=O)n1C1CCC(=O)NC1=O` (stereo not drawn) [GT-03228, 3-(2-methyl-4-oxo-5-(piperazin-1-ylmethyl)quinazolin-3(4H)-yl)piperidine-2,6-dione] showed an IC50 of 1840 nM. The same measure for `Cc1nc2cccc(NCCCCCCCN3CCN(C4COC4)CC3)c2c(=O)n1C1CCC(=O)NC1=O` (stereo not drawn) [GT-02623, 3-(2-methyl-5-((7-(4-(oxetan-3-yl)piperazin-1-yl)heptyl)amino)-4-oxoquinazolin-3(4H)-yl)piperidine-2,6-dione]: 2520 nM.

(Values after patent US20240425475A1, “COMPOUND BASED ON QUINAZOLINE-SUBSTITUTED GLUTARIMIDE SKELETON AND USE THEREOF” (GLUETACS THERAPEUTICS (SHANGHAI) CO., LTD., priority 2022, published 2024).)
